Experiments:
Assay in all cases: Test C greenhouse herbicide test, pre- and postemergence
Format in all cases: in vivo
[1] = test system: barnyardgrass (Echinochloa crus-galli)
Method in brief: (§1)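 Each species was treated both before emergence, in a loam–sand soil mix, and after emergence, as 1- to 4-leaf seedlings in peat-based potting medium. Plants stayed in the greenhouse 13 to 15 d, then were scored from 0 (no effect) to 100 (complete control) relative to controls.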

[2] = test system: blackgrass (Alopecurus myosuroides)
Method in brief: as §1

[3] = test system: corn (Zea mays)
Method in brief: as §1

[4] = test system: crabgrass, large (large crabgrass, Digitaria sanguinalis)
Method in brief: as §1

[5] = test system: foxtail, giant (giant foxtail, Setaria faberii)
Method in brief: as §1

[6] = test system: galium (catchweed bedstraw, Galium aparine)
Method in brief: as §1

[7] = test system: lambsquarters (Chenopodium album)
Method in brief: as §1

[8] = test system: nutsedge, yellow (yellow nutsedge, Cyperus esculentus)
Method in brief: as §1

[9] = test system: oilseed rape (Brassica napus)
Method in brief: as §1

[10] = test system: pigweed (Amaranthus retroflexus)
Method in brief: as §1

[11] = test system: ragweed (common ragweed, Ambrosia elatior)
Method in brief: as §1

[12] = test system: ryegrass, Italian (Italian ryegrass, Lolium multiflorum)
Method in brief: as §1

[13] = test system: soybean (Glycine max)
Method in brief: as §1

[14] = test system: velvetleaf (Abutilon theophrasti)
Method in brief: as §1

[15] = test system: wheat (winter wheat, Triticum aestivum)
Method in brief: as §1

[16] = Postemergence, 31 g ai/ha, 0 to 100 scale (0 no effect, 100 complete control)
[17] = Postemergence, 125 g ai/ha, scale 0 to 100, 0 is no effect, 100 is complete control
[18] = Postemergence, 250 g ai/ha, scale 0 to 100, 0 no effect, 100 complete control, 13 to 15 d
[19] = Preemergence, 31 g ai/ha, scale 0 to 100, 0 is no effect, 100 is complete control
[20] = Preemergence, 62 g ai/ha, scale 0 to 100, 0 is no effect, 100 is complete control
[21] = Preemergence, 125 g ai/ha, scale 0 to 100, 0 is no effect, 100 is complete control
[22] = Preemergence, 250 g ai/ha, scale 0 to 100, 0 no effect, 100 complete control
[23] = postemergence, 62 g ai/ha, scale 0 to 100, 0 no effect, 100 complete control

For CCc1ccc2ccccc2c1-c1c(O)c(C)nn(C)c1=O [Compound 32], the “Barnyardgrass plant response rating” value [1, 16] was 10, the “Plant response rating, Barnyardgrass” value [1, 17] was 65 and the “Plant response rating, Barnyardgrass” value [1, 18] was 90. For the same compound, the “Plant response rating, Barnyardgrass” value [1, 19] was 20, the “Plant response rating, Barnyardgrass” value [1, 20] was 65 and the “Plant response rating, Barnyardgrass” value [1, 21] was 85. For the same compound, the “Barnyardgrass plant response rating” value [1, 22] was 100, the “Barnyardgrass plant response rating” value [1, 23] was 30 and the “Blackgrass plant response rating” value [2, 16] was 30. For the same compound, the “Plant response rating, Blackgrass” value [2, 17] was 80, the “Plant response rating, Blackgrass” value [2, 18] was 80 and the “Plant response rating, Blackgrass” value [2, 19] was 70. The “Plant response rating, Blackgrass” value [2, 20] was 90, the “Plant response rating, Blackgrass” value [2, 21] was 90 and the “Blackgrass plant response rating” value [2, 22] was 90. The “Blackgrass plant response rating” value [2, 23] was 60, the “Corn plant response rating” value [3, 16] was 0 and the “Plant response rating, Corn” value [3, 17] was 30. For the same compound, the “Plant response rating, Corn” value [3, 18] was 40, the “Plant response rating, Corn” value [3, 19] was 0 and the “Plant response rating, Corn” value [3, 20] was 0. The “Plant response rating, Corn” value [3, 21] was 0, the “Corn plant response rating” value [3, 22] was 35 and the “Corn plant response rating” value [3, 23] was 20. The “Crabgrass, Large plant response rating” value [4, 16] was 10, the “Plant response rating, Crabgrass, Large” value [4, 17] was 75 and the “Plant response rating, Crabgrass, Large” value [4, 18] was 70. For the same compound, the “Plant response rating, Crabgrass, Large” value [4, 19] was 0, the “Plant response rating, Crabgrass, Large” value [4, 20] was 35 and the “Plant response rating, Crabgrass, Large” value [4, 21] was 70. For the same compound, the “Crabgrass, Large plant response rating” value [4, 22] was 100, the “Crabgrass, Large plant response rating” value [4, 23] was 30 and the “Foxtail, Giant plant response rating” value [5, 16] was 15. The “Plant response rating, Foxtail, Giant” value [5, 17] was 80, the “Plant response rating, Foxtail, Giant” value [5, 18] was 90 and the “Plant response rating, Foxtail, Giant” value [5, 19] was 55. For the same compound, the “Plant response rating, Foxtail, Giant” value [5, 20] was 80, the “Plant response rating, Foxtail, Giant” value [5, 21] was 85 and the “Foxtail, Giant plant response rating” value [5, 22] was 85. For the same compound, the “Foxtail, Giant plant response rating” value [5, 23] was 50, the “Galium plant response rating” value [6, 16] was 90 and the “Plant response rating, Galium” value [6, 17] was 100. The “Plant response rating, Galium” value [6, 18] was 100, the “Plant response rating, Galium” value [6, 19] was 90 and the “Plant response rating, Galium” value [6, 20] was 95. The “Plant response rating, Galium” value [6, 21] was 100, the “Galium plant response rating” value [6, 22] was 98 and the “Galium plant response rating” value [6, 23] was 100. The “Lambsquarters plant response rating” value [7, 16] was 85, the “Plant response rating, Lambsquarters” value [7, 17] was 98 and the “Plant response rating, Lambsquarters” value [7, 18] was 100. The “Plant response rating, Lambsquarters” value [7, 19] was 80, the “Plant response rating, Lambsquarters” value [7, 20] was 70 and the “Plant response rating, Lambsquarters” value [7, 21] was 85. For the same compound, the “Lambsquarters plant response rating” value [7, 22] was 90, the “Lambsquarters plant response rating” value [7, 23] was 90 and the “Nutsedge, Yellow plant response rating” value [8, 16] was 55. The “Plant response rating, Nutsedge, Yellow” value [8, 17] was 80, the “Plant response rating, Nutsedge, Yellow” value [8, 18] was 85 and the “Plant response rating, Nutsedge, Yellow” value [8, 19] was 25. The “Plant response rating, Nutsedge, Yellow” value [8, 20] was 45, the “Plant response rating, Nutsedge, Yellow” value [8, 21] was 45 and the “Nutsedge, Yellow plant response rating” value [8, 22] was 60. The “Nutsedge, Yellow plant response rating” value [8, 23] was 80, the “Oilseed Rape plant response rating” value [9, 16] was 10 and the “Plant response rating, Oilseed Rape” value [9, 17] was 60. The “Plant response rating, Oilseed Rape” value [9, 18] was 90, the “Plant response rating, Oilseed Rape” value [9, 19] was 25 and the “Plant response rating, Oilseed Rape” value [9, 20] was 90. For the same compound, the “Plant response rating, Oilseed Rape” value [9, 21] was 90, the “Oilseed Rape plant response rating” value [9, 22] was 100 and the “Oilseed Rape plant response rating” value [9, 23] was 60. For the same compound, the “Pigweed plant response rating” value [10, 16] was 75, the “Plant response rating, Pigweed” value [10, 17] was 90 and the “Plant response rating, Pigweed” value [10, 18] was 95. The “Plant response rating, Pigweed” value [10, 19] was 100, the “Plant response rating, Pigweed” value [10, 20] was 100 and the “Plant response rating, Pigweed” value [10, 21] was 100. The “Pigweed plant response rating” value [10, 22] was 100, the “Pigweed plant response rating” value [10, 23] was 90 and the “Ragweed plant response rating” value [11, 16] was 85. The “Plant response rating, Ragweed” value [11, 17] was 98, the “Plant response rating, Ragweed” value [11, 18] was 98 and the “Plant response rating, Ragweed” value [11, 19] was 85. The “Plant response rating, Ragweed” value [11, 20] was 90, the “Plant response rating, Ragweed” value [11, 21] was 95 and the “Ragweed plant response rating” value [11, 22] was 98. The “Ragweed plant response rating” value [11, 23] was 90, the “Ryegrass, Italian plant response rating” value [12, 16] was 85 and the “Plant response rating, Ryegrass, Italian” value [12, 17] was 90. The “Plant response rating, Ryegrass, Italian” value [12, 18] was 95, the “Plant response rating, Ryegrass, Italian” value [12, 19] was 85 and the “Plant response rating, Ryegrass, Italian” value [12, 20] was 90. For the same compound, the “Plant response rating, Ryegrass, Italian” value [12, 21] was 95, the “Ryegrass, Italian plant response rating” value [12, 22] was 95 and the “Ryegrass, Italian plant response rating” value [12, 23] was 90. For the same compound, the “Soybean plant response rating” value [13, 16] was 15, the “Plant response rating, Soybean” value [13, 17] was 30 and the “Plant response rating, Soybean” value [13, 18] was 35. For the same compound, the “Plant response rating, Soybean” value [13, 20] was 10, the “Plant response rating, Soybean” value [13, 21] was 40 and the “Soybean plant response rating” value [13, 22] was 55. For the same compound, the “Soybean plant response rating” value [13, 23] was 25, the “Velvetleaf plant response rating” value [14, 16] was 10 and the “Plant response rating, Velvetleaf” value [14, 17] was 85. For the same compound, the “Plant response rating, Velvetleaf” value [14, 18] was 85, the “Plant response rating, Velvetleaf” value [14, 20] was 85 and the “Plant response rating, Velvetleaf” value [14, 21] was 85. For the same compound, the “Velvetleaf plant response rating” value [14, 22] was 90, the “Velvetleaf plant response rating” value [14, 23] was 70 and the “Wheat plant response rating” value [15, 16] was 5. The “Plant response rating, Wheat” value [15, 17] was 25, the “Plant response rating, Wheat” value [15, 18] was 40 and the “Plant response rating, Wheat” value [15, 20] was 45. For the same compound, the “Plant response rating, Wheat” value [15, 21] was 50, the “Wheat plant response rating” value [15, 22] was 70 and the “Wheat plant response rating” value [15, 23] was 15.
